From publication PMC9663578, “A fluorogenic probe for predicting treatment response in non-small cell lung cancer with EGFR-activating mutations” (Nature Communications, 2022)
“And” between values parts separate entries of the source, which are not always exact repeats. Equal values may be shown once.

Legend:
Jurkat cells = assay: FACS assay in cultured cells
Description: The FACS assay was performed according to the reported literatures[67],[68]. Briefly, the cultured cells were seeded on the petri dish and counted using Count star BioMed automated cell counter. Around 10^6 live-cells were collected and were pelleted (2000×g, 3 min), followed by washing with PBS (2x). Cells were then resuspended in PBS buffer containing 0.1% BSA (1 × 10^6 cells/mL). […] The cell suspension was resuspended in PBS and analyzed with a FACSVerse^TM flow cytometer (BD Biosciences, LSRFortessa). About 10,000 events per tube were analyzed and the mean fluorescence intensity was detected and analyzed.
(§1) For the FACS assay with EGFR antibody, around 10^6 live-cells were collected and washed with PBS (2x). The cells were fixed by 400 µL 4% paraformaldehyde for 15 min at room temperature, followed by permeabilization with 0.1% Triton X-100 for 10 min and blocking with 5% BSA for 30 min. […] The cells were then washed with 0.5% BSA/PBS (3x) and resuspended in 400 µL of 0.1% BSA/PBS. […] The resuspended cell suspension was then analyzed on a FACSVerseTM flow cytometer (BD Biosciences, LSRFortessa). Nonspecific fluorescence binding was omitted by Rabbit mAb IgG isotype control (#3900, CST, 1:100) and the corresponding mean fluorescence was subtracted from the signal measured with each primary antibody. About 10,000 events per tube were analyzed and the mean fluorescence intensity was detected and analyzed.
(§2) Subsequently, the treated cells were incubated for 30 min at 37 °C, followed by washing with PBS buffer three times. […] Finally, the co-stained cells were washed with 0.5% BSA/PBS for three times and resuspended in 400 µL of 0.1% BSA/PBS. The obtained cell suspension was ready for analysis. Nonspecific fluorescence binding was omitted by Rabbit mAb IgG isotype control (#3900, CST, 1:100) as described above.
(§3) Nonspecific fluorescence binding was omitted by Rabbit mAb IgG isotype control (#3900, CST, 1:100). […] After incubation for another 30 min at room temperature, the co-stained cells were washed with 0.5% BSA/PBS for three times and resuspended in 400 µL of 0.1% BSA/PBS. The obtained cell suspension was ready for analysis. Nonspecific fluorescence binding was omitted by Rabbit mAb IgG isotype control (#3900, CST, 1:100) as described above.
(§4) The cells were seeded on the petri dish and cultured at the normal condition with 10% FBS, and that was changed to serum-free condition for 24 h when the cells proliferated at ~80% confluence. […] Nonspecific fluorescence binding was omitted by Rabbit mAb IgG isotype control (#3900, CST, 1:100) as described above.

[1] = Measurement of optical properties; assay type: physicochemical; details: for Fluorescence intensity, HX103 only: Fig. 2a
Description: page 66: […] Measurement of optical properties In the study, UV-vis spectra of the probes were determined on a Hitachi U-2910. The fluorescence spectroscopic experiments were performed on BioTek microplate reader and Horiba Jobin Yvon - Edison Fluoromax-4. Absolute fluorescence quantum efficiency was measured by an absolute quantum yield spectrometer (Horiba Jobin Yvon-Edison Fluoromax-4). The tested probe was dissolved in dimethyl sulfoxide (DMSO) to obtain stock solutions (10 mM). The prepared stock […] concentration solution, containing 0.1% (v/v) DMSO as a cosolvent. For the in vitro kinase […] The excitation and emission fluorescence spectra of the solution before/after addition o f different concentration […] Data analysis:The obtained fluorescence intensity at 570 nm (Excitation wavelength was 440 nm) in each sample was normalized by using the fluorescence intensity of HX103 in the presence of EGFR. Specifically, the fluorescence intensity of HX103 in the presence of EGFR wild-type […] 66

HCC827 cells = assay: MTT cytotoxicity assay; assay type: cell-based; details: Homo sapiens, EGFR 19del, 48 h, n=3
MTT cytotoxicity assay = assay type: cell-based; details: human, A549 cells, EGFR wild-type, n=3
Description: The cytotoxicity of the tested compounds against selected cell lines was measured by 3-(4,5-dimethylthiazol-2-yl)-2,5-diphenl tetrazolium bromide (MTT) assay. Briefly, cells (3000 per well) were plated in 96-well plate for 24 h and 100 µL of medium with di fferent concentrations of the tested compounds was added to each well for 48 h. Then 20 μL of MTT (5 mg/mL, Sigma-Aldrich) was added and incubate at 37 ℃ for 4 h, resulting the formation of the formazan crystal. The formed formazan crystal was dissolved with 150 μL of DMSO after removing the medium. The absorbance of each well was measured at 570 nm wavelength. The inhibition rate was calculated by the formula: (OD control group - OD treated group)/OD control group ×100%. The experiments were repeated at least three times. The IC50 values were determined by plotting a log (inhibitor) vs. normalized response (Variable slope) dose-response curve generated using GraphPad Prism […]
Immunohistochemistry staining
The obtained tumor tissues were sectioned into about 3 µm thickness layers. The general protocol of immunohistochemistry (IHC) was applied for the experiment. Firstly, the tissue slices were deparaffinized in xylene before immersion in 100% ethanol, followed by antigen repair. […]

EGFR L858R = target: T1, EGFR L858R (Homo sapiens, UniProt P00533, L858R); assay: Fluorescence turn-on response / titration of HX103 with recombinant EGFR;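 for Fluorescence intensity at 570 nm: 100% is HX103 fluorescence with wild-type EGFR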;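 for all read-outs here: fluorescence of the probe measured with recombinant EGFR L858R in PBS carrying 0.1% DMSO, excitation at 440 nm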; assay type: binding; details: for Fluorescence intensity, L858R: Fig. 2c; for Fluorescence response of HX103 to EGFR L858R: Supplementary Fig. 2f
T1 construct: EGFR L858R (amino acids 668–1210, #PR7447A); purchased Thermo Fisher PR7447A
Description: (d) Fluorescence spectra change of HX103 (5 µ M) with increasing concentration of EGFR L858R
(e) Fluorescence spectra change of HX103 (5 µ M ) with
increasing concentration of EGFR 19del (0 to 6 µM) in PBS buffer. (f) Titration curve of HX103
(5 µM) with increasing concentration of EGFRs (0 to 6 µM). The apparent binding affinity (Kd)
The fluorescence titration curve was fitted on one -
site specific binding model. I and I0 represent the intensities of HX103 at 570 nm in the presence
and absence of protein. Data represent average val ues ± SD, n = 3 independent experiments per
solution was diluted in sodium phosphate buffer (PBS, 1 M, pH=7.4) to obtain the desired final
Data analysis：The obtained fluorescence intensity at 570 nm (Excitation wavelength was 440
was set at 100% to normalized that of the remaining samples.

Hela cells = assay: FACS assay in cultured cells; details: for HX103 dose-dependent signal (Supplementary Fig. 18): 20 µM = 100
Description: (§5) Briefly, the cultured cells were seeded on the petri dish and counted using Count star BioMed automated cell counter. Around 10^6 live-cells were collected and were pelleted (2000×g, 3 min), followed by washing with PBS (2x). Cells were then resuspended in PBS buffer containing 0.1% BSA (1 × 10^6 cells/mL). […] The cell suspension was resuspended in PBS and analyzed with a FACSVerse^TM flow cytometer (BD Biosciences, LSRFortessa). About 10,000 events per tube were analyzed and the mean fluorescence intensity was detected and analyzed.
as §1, §2, §3, §4

H1975 cells = assay: FACS assay in cultured cells; details: for HX103 dose-dependent signal (Supplementary Fig. 18): 20 µM = 100
Description: as §5, §1, §2, §3, §4

A431 cells = assay: FACS assay in cultured cells; details: for HX103 dose-dependent signal (Supplementary Fig. 18): 20 µM = 100
Description: as §5, §1, §2, §3, §4

[2] = HX103 5 µM, 30 min, replicates n=1-3

Stokes shift [1]: 130 nm
excitation maximum [1]: 340/440
absolute quantum yield ([1]; DMSO): 42.4%
maximum UV absorption ([1]; DMSO): 342/438
Fluorescence intensity, HX103 only ([1]; wavelength 666 nm): 328.882
Fluorescence intensity, HX103 only ([1]; wavelength 669 nm): 313.191
Fluorescence intensity, HX103 only ([1]; wavelength 671 nm): 290.291
Fluorescence intensity, HX103 only ([1]; wavelength 673 nm): 261.813
Fluorescence intensity, HX103 only ([1]; wavelength 676 nm): 236.251
Fluorescence intensity, HX103 only ([1]; wavelength 678 nm): 222.471
Fluorescence intensity, HX103 only ([1]; wavelength 681 nm): 229.28
Fluorescence intensity, HX103 only ([1]; wavelength 683 nm): 261.184
Fluorescence intensity, HX103 only ([1]; wavelength 686 nm): 315.405
Fluorescence intensity, HX103 only ([1]; wavelength 688 nm): 388.462
Fluorescence intensity, HX103 only ([1]; wavelength 690 nm): 476.875
Fluorescence intensity, HX103 only ([1]; wavelength 693 nm): 577.288
Fluorescence intensity, HX103 only ([1]; wavelength 695 nm): 686.662
Fluorescence intensity, HX103 only ([1]; wavelength 698 nm): 802.01
Fluorescence intensity, HX103 only ([1]; wavelength 700 nm): 920.343
Fluorescence intensity at 570 nm ([1]; Fig. 2b, HX103 alone, n=1-3): 8.2448 and 8.538 and 6.65
absolute quantum yield ([1]; PBS): 5.8%
fluorescence emission wavelength ([1]; excitation at 440 nm): 570 nm
Fluorescence intensity, L858R (EGFR L858R; wavelength 666 nm): 4655.85
Fluorescence intensity, L858R (EGFR L858R; wavelength 669 nm): 4299.18
Fluorescence intensity, L858R (EGFR L858R; wavelength 671 nm): 3977.08
Fluorescence intensity, L858R (EGFR L858R; wavelength 673 nm): 3702.64
Fluorescence intensity, L858R (EGFR L858R; wavelength 676 nm): 3456.05
Fluorescence intensity, L858R (EGFR L858R; wavelength 678 nm): 3215.71
Fluorescence intensity, L858R (EGFR L858R; wavelength 681 nm): 2960.24
Fluorescence intensity, L858R (EGFR L858R; wavelength 683 nm): 2683.28
Fluorescence intensity, L858R (EGFR L858R; wavelength 686 nm): 2403.9
Fluorescence intensity, L858R (EGFR L858R; wavelength 688 nm): 2143.64
Fluorescence intensity, L858R (EGFR L858R; wavelength 690 nm): 1924.01
Fluorescence intensity, L858R (EGFR L858R; wavelength 693 nm): 1757.52
Fluorescence intensity, L858R (EGFR L858R; wavelength 695 nm): 1633.62
Fluorescence intensity, L858R (EGFR L858R; wavelength 698 nm): 1538.11
Fluorescence intensity, L858R (EGFR L858R; wavelength 700 nm): 1456.78
Fluorescence intensity at 570 nm (EGFR L858R; Fig. 2d, HX103 with EGFR L858R, n=1-3): 94.4744 and 115.569 and 99.2784
fluorescence turn-on response (EGFR L858R; HX103 5 µM in PBS buffer (0.1% DMSO), 570 nm): high fluorescence
Kd (EGFR L858R; HX103 5 µM, EGFR 0 to 6 µM in PBS, one-site specific binding model, read-out: apparent binding affinity (Kd)): 0.8 ± 0.3 µM
Fluorescence response of HX103 to EGFR L858R (EGFR L858R; EGFR 1 µM, n=1-3): 6.4875 and 6.559 and 3.424
Fluorescence response of HX103 to EGFR L858R (EGFR L858R; EGFR 2 µM, n=1-3): 8.6 and 6.836 and 4.376
Fluorescence response of HX103 to EGFR L858R (EGFR L858R; EGFR 5 µM, n=1-3): 8.998 and 10.1242 and 7.156
Fluorescence response of HX103 to EGFR L858R (EGFR L858R; EGFR 6 µM, n=1-3, 0 at EGFR 0): 9.745 and 11.2537 and 8.24
SMILES: COc1cc2c(Nc3ccc(F)c(Cl)c3)ncnc2cc1OCCCNc1ccc(S(=O)(=O)N(C)C)c2nonc12 [HX103]
normalized MFI of HX103 labeling (Jurkat cells; [2]): 17.5966% and 26.6094% and 22.103%
EGFR(+) HX103 (+) (%) (Jurkat cells; HX103 5 µM, replicates n=1-3): 0.1% and 0.22% and -0.02%
EGFR(+) HX103 (+) (%) AVE (Jurkat cells; Jurkat, AVE of n=3): 0.1%
HX103 (+) (%) AVE (Jurkat cells; Jurkat, AVE of n=3): 0.05667%
EGFR(+) HX103 (+) (%) (Jurkat cells; Jurkat, replicates n=1-3): -0.02% and 0.1% and 0.22%
HX103(+) (%) (Jurkat cells; Jurkat, replicates n=1-3): 0.07% and 0.01% and 0.09%
IC50 (HCC827 cells): 9.3 µM
IC50 at 48 h (MTT cytotoxicity assay): 18 µM
normalized MFI of HX103 labeling (Hela cells; [2]): 54.5064% and 65.6652% and 60.0858%
EGFR(+) HX103 (+) (%) (Hela cells; HX103 5 µM, replicates n=1-3): 13.055% and 13.1% and 19.51%
EGFR(+) HX103 (+) (%) AVE (Hela cells; Hela, AVE of n=3): 15.2217%
HX103 (+) (%) AVE (Hela cells; Hela, AVE of n=3): 15.7267%
HX103 dose-dependent signal (Supplementary Fig. 18) (Hela cells; Hela, HX103 0.37 µM): 10.7485 and 20.011 and 16.0693
HX103 dose-dependent signal (Supplementary Fig. 18) (Hela cells; Hela, HX103 1.1 µM): 23.8614 and 34.4348 and 25.4882
HX103 dose-dependent signal (Supplementary Fig. 18) (Hela cells; Hela, HX103 3.3 µM): 36.4324 and 54.3602 and 56.4764
HX103 dose-dependent signal (Supplementary Fig. 18) (Hela cells; Hela, HX103 10 µM): 67.5297 and 65.6787 and 69.9637
HX103 dose-dependent signal (Supplementary Fig. 18) (Hela cells; Hela, HX103 15 µM): 106.382 and 89.2391 and 92.3446
HX103 dose-dependent signal (Supplementary Fig. 18) (Hela cells; Hela, HX103 20 µM): 100
HX103 signal (Supplementary Fig. 7) (Hela cells; Hela, HX103 alone or with Gefitinib, replicates n=1-3): 110.043 and 93.8574 and 96.1
EGFR(+) HX103 (+) (%) (Hela cells; Hela, replicates n=1-3): 19.51% and 13.055% and 13.1%
HX103(+) (%) (Hela cells; Hela, replicates n=1-3): 15.88% and 13.1% and 18.2%
EGFR(+) HX103 (+) (%) AVE (H1975 cells; H1975, AVE of n=3): 82.37%
HX103 (+) (%) AVE (H1975 cells; H1975, AVE of n=3): 87.9667%
HX103 dose-dependent signal (Supplementary Fig. 18) (H1975 cells; H1975, HX103 0.04 µM): 2.425 and 4.214 and 3.319
HX103 dose-dependent signal (Supplementary Fig. 18) (H1975 cells; H1975, HX103 0.37 µM): 11.9338 and 12.3486 and 12.1512
HX103 dose-dependent signal (Supplementary Fig. 18) (H1975 cells; H1975, HX103 1.1 µM): 36.5652 and 42.2419 and 39.4086
HX103 dose-dependent signal (Supplementary Fig. 18) (H1975 cells; H1975, HX103 3.3 µM): 51.8347 and 43.4647 and 47.0457
HX103 dose-dependent signal (Supplementary Fig. 18) (H1975 cells; H1975, HX103 10 µM): 81.1792 and 74.1549 and 77.687
HX103 dose-dependent signal (Supplementary Fig. 18) (H1975 cells; H1975, HX103 15 µM): 93.412 and 78.0323 and 85.7212
HX103 dose-dependent signal (Supplementary Fig. 18) (H1975 cells; H1975, HX103 20 µM): 100
HX103 signal (Supplementary Fig. 7) (H1975 cells; H1975, HX103 alone or with Gefitinib, replicates n=1-3): 118.617 and 81.9826 and 99.4
EGFR(+) HX103 (+) (%) (H1975 cells; H1975, replicates n=1-3): 74.3% and 85.37% and 87.44%
HX103(+) (%) (H1975 cells; H1975, replicates n=1-3): 98.62% and 87.52% and 77.76%
normalized MFI of HX103 labeling (H1975 cells; [2]): 81.9742% and 118.026% and 100%
EGFR(+) HX103 (+) (%) (H1975 cells; HX103 5 µM, replicates n=1-3): 85.37% and 87.44% and 74.3%
EGFR(+) HX103 (+) (%) AVE (A431 cells; A431, AVE of n=3): 62.105%
HX103 (+) (%) AVE (A431 cells; A431, AVE of n=3): 75.74%
HX103 dose-dependent signal (Supplementary Fig. 18) (A431 cells; A431, HX103 0.37 µM): 15.6053 and 17.5852 and 16.5942
HX103 dose-dependent signal (Supplementary Fig. 18) (A431 cells; A431, HX103 1.1 µM): 27.0427 and 32.7871 and 29.9049
HX103 dose-dependent signal (Supplementary Fig. 18) (A431 cells; A431, HX103 3.3 µM): 44.6928 and 49.6432 and 47.158
HX103 dose-dependent signal (Supplementary Fig. 18) (A431 cells; A431, HX103 10 µM): 77.4475 and 86.2684 and 81.868
HX103 dose-dependent signal (Supplementary Fig. 18) (A431 cells; A431, HX103 15 µM): 96.5825 and 89.3875 and 92.975
HX103 dose-dependent signal (Supplementary Fig. 18) (A431 cells; A431, HX103 20 µM): 100
HX103 signal (Supplementary Fig. 7) (A431 cells; A431, HX103 alone or with Gefitinib, replicates n=1-3): 114.212 and 76.0875 and 109.7
EGFR(+) HX103 (+) (%) (A431 cells; A431, replicates n=1-3): 55.07% and 64.605% and 66.64%
HX103(+) (%) (A431 cells; A431, replicates n=1-3): 96.31% and 66.39% and 64.52%
normalized MFI of HX103 labeling (A431 cells; [2]): 83.2618% and 101.288% and 92.2747%
EGFR(+) HX103 (+) (%) (A431 cells; HX103 5 µM, replicates n=1-3): ~ 60% and 64.605% and 66.64% and 55.07%
